Measurements published in US20210223230A1, “Neamine Compositions and Methods of Use Thereof” (President and Fellows of Harvard College, priority 2008, published 2021).
Values joined by “and” are separate entries in the source; they are usually repeats but may differ in a detail not shown here. Equal entries are not always repeated. “Also recorded” adds a separate entry of the source. Where two headings read alike, the source gives them in different places.

What was measured:
[1] = system: LNCaP cells; experiment: LNCaP cell proliferation in phenol red-free and steroid-free medium; format: cell-based, human; conditions: ANG 0.1 μg/ml, DHT 10 nM
Experimental: (a) ANG stimulates LNCaP cell proliferation in the absence of androgens. Cells were culture in phenol red-free and charcoal/dextran-stripped (steroid-free) FBS for 2 day and stimulated with DHT (10 nM), ANG (0.1 μg/ml), or a mixture of the two for the time indicated. (b) Dose dependence. ANG was added to the cells and cultured for 4 days. (c) Anti-ANG mAb 26-2F inhibits DHT-induced cell proliferation. LNCaP cells were stimulated with 10 nM DHT in the presence of 26-2F or a control non-immune IgG for 3 days. (d) ANG over-expression promotes LNCaP proliferation in vitro. The vector control (pCI-Neo) and ANG transfectants (pCI-ANG) were cultured in phenol red-free and steroid-free medium for the time indicated. (e) Xenograft growth in castrated SCID mice. A mixture of 70 μl cell suspension (1×10^6 cells) and 30 μl Matrigel was injected s.c. per mouse (8 per group). The mice were castrated or sham-operated at the same time. Tumors were inspected and measured twice a week and the animals were sacrificed after 8 weeks of observation. (f) Endogenous ANG of LNCaP cells is essential for androgen-induced rRNA transcription. LNCaP cells were cultured in phenol red-free and steroid-free medium and incubated with DHT (10 nM), ANG (0.1 μg/ml), anti-ANG mAb 26-2F (60 μg/ml) or a mixture of DHT and 26-2F for 2 h. […]

[2] = system: ANG; experiment: Nuclear translocation of ANG; format: cell-based; conditions: inhibitors tested
[3] = system: angiogenesis; conditions: literature reports; cited from earlier work
[4] = system: ANG; conditions: literature reports; cited from earlier work
[5] = mouse, in vivo, sc; cited from earlier work
[6] = in vivo; cited from earlier work
[7] = system: AKT-induced PIN; experiment: Prevention of AKT-induced PIN in 4-week-old MPAKT mice by small-molecule ANG inhibitors; conditions: for 47S rRNA level / transcription (ISH) / AKT phosphorylation (IHC) / localization of ANG in prostate epithelial cells (IHC) / PIN formation (H&E): daily i.p. 4 weeks from week 4; for PIN formation (H&E): neamine, neomycin 10 mg/kg, N65828 4 mg/kg
[8] = system: established PIN; experiment: Reversal of established PIN in 12-week-old MPAKT mice; format: in vivo; conditions: for AKT expression and phosphorylation (IHC) / established PIN phenotype (H&E) / rRNA transcription / 47S rRNA level (ISH): daily i.p. 4 weeks from week 12; for apoptotic index: neomycin 10 mg/kg, N65828 4 mg/kg daily i.p. 4 weeks from week 12, control 0.95±0.11
[9] = system: PC-3 human prostate cancer cells; conditions: nude mice, literature; cited from earlier work
[10] = Adverse side effects in the treated mice of these studies; format: in vivo; conditions: 30 mg/kg s.c. and 10 mg/kg i.p.
[11] = cited from earlier work
[12] = system: PC-3 cell tumor tissues; experiment: IHC and ISH of PC-3 xenograft tumor tissues (ANG localization, 47S rRNA, PCNA, vWF); format: in vivo, athymic mice
Experimental: PBS- and neamine-treated tumor tissues were fixed in formalin, embedded in paraffin, and sections of […] were cut. (A) Localization of ANG was determined by IHC with anti-human ANG monoclonal antibody 26-2F. […] (C) Proliferating cells were stained with an anti-PCNA monoclonal antibody (mAb). PCNA positive and total numbers of cells were counted in 5 randomly selected areas at 200× magnification. (D) Blood vessels were stained with an anti-vWF antibody and counted in five most vascularized areas at 200× magnification.

[13] = Acute LD50 (subcutaneous) in mice; format: in vivo
[14] = system: HT-29 human colon adenocarcinoma; conditions: cited from earlier work
[15] = system: MDA-MB-435 human breast cancer cells; conditions: cited from earlier work
[16] = system: PC-3 human prostate cancer cells; experiment: Xenograft growth of PC-3 cell tumors in athymic mice; format: in vivo
Experimental: Male athymic mice were inoculated with 5×10^5 of PC-3 cells, and treated sub-cutaneously (s.c.) with PBS or neamine at a dose of 30 mg/kg body weight twice weekly for 8 weeks. Twelve mice were used per group. (A) Mice were examined by palpation for tumor appearance. (B) Tumor sizes were measured with a caliper and were expressed as length×width^2. At day 56, mice were sacrificed and tumor tissues were removed, photographed (C) and weighed (D).
Xenograft growth of PC-3 cell tumors. Five-week-old male athymic mice were inoculated s.c. with 100 μl of a mixture containing 5×10^5 PC-3 cells and 33 μl of Matrigel. The mice were treated s.c. with PBS or neamine (30 mg/kg) twice weekly for 8 weeks. Tumor sizes were measured every 3 days and recorded in mm^3 (Length×width^2). Mice were sacrificed at day 56 and the tumors were removed and the wet weights of the PC-3 tumors were recorded.

[17] = biological target: ANG (Homo sapiens, UniProt P03950); conditions: screen of 18,310 compounds; cited from earlier work
Sequence of ANG (Homo sapiens, UniProt P03950) (P03950 25-147): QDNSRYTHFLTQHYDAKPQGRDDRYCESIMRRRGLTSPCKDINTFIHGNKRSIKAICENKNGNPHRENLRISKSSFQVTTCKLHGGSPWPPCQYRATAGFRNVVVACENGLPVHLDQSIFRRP

C[C@]12CCC(=O)C[C@@H]1CC[C@@H]1[C@@H]2CC[C@]2(C)[C@@H](O)CC[C@@H]12 [DHT, dihydrotestosterone, reference compound]
LNCaP cell proliferation in the absence of androgens [1]: stimulates

COc1ccc2c(c1)CC[C@@H]1[C@@H]2CC[C@]2(C)[C@@H](NCCCCCCN3C(=O)CCC3=O)CC[C@@H]12 [U-73343]
effect on nuclear translocation of ANG [2]: only marginally block

CN[C@@H]1C[C@H]2O[C@@](C)([C@@H]1OC)n1c3ccccc3c3c4c(c5c6ccccc6n2c5c31)C(=O)NC4 [staurosporine]
effect on nuclear translocation of ANG [2]: no detectable effect

NC[C@@H]1O[C@H](O[C@H]2[C@@H](O)[C@H](O[C@@H]3[C@@H](O)[C@H](N)C[C@H](N)[C@H]3O[C@H]3O[C@H](CO)[C@@H](O)[C@H](O)[C@H]3N)O[C@@H]2CO)[C@H](N)[C@@H](O)[C@@H]1O [paromomycin]
anti-angiogenic activity [3]: not anti-angiogenic
effect on nuclear translocation of ANG [2]: does not detectably block
effect on nuclear translocation of ANG [4]: do not block

[H]/N=C(/N)N[C@H]1[C@H](O)[C@@H](O)[C@H](O[C@@H]2O[C@@H](C)[C@](O)(C=O)[C@H]2O[C@@H]2O[C@@H](CO)[C@H](O)[C@@H](O)[C@@H]2NC)[C@@H](N/C(N)=N\[H])[C@@H]1O [streptomycin]
anti-angiogenic activity [3]: not anti-angiogenic
acute LD50 (subcutaneous) in mice [5]: 600 mg/kg
effect on nuclear translocation of ANG [4]: do not block

O=c1c(-c2ccc(O)cc2)coc2cc(O)cc(O)c12 [Genistein]
effect on nuclear translocation of ANG [2]: no detectable effect

NCC[C@H](O)C(=O)N[C@@H]1C[C@H](N)[C@@H](O[C@H]2O[C@H](CN)[C@@H](O)[C@H](O)[C@H]2O)[C@H](O)[C@H]1O[C@H]1O[C@H](CO)[C@@H](O)[C@H](N)[C@H]1O [amikacin]
anti-angiogenic activity [3]: not anti-angiogenic
effect on nuclear translocation of ANG [4]: do not block

neomycin
renal cortical levels relative to circulating levels in serum [6]: ≤ 20 times
47S rRNA level / transcription (ISH) [7]: inhibited
AKT phosphorylation (IHC) [7]: not altered
localization of ANG in prostate epithelial cells (IHC) [7]: extracellular
PIN formation (H&E) [7]: prevented PIN formation
AKT expression and phosphorylation (IHC) [8]: not different from that of the control group
established PIN phenotype (H&E) [8]: reversed
rRNA transcription / 47S rRNA level (ISH) [8]: dramatically decreased
apoptotic index [8]: 1.95±0.19 caspase 3 positive cells per duct
luminal cell size ([8]; neomycin 4 weeks from week 12): restored cell size to normal
size of the ventral prostate of a representative mouse ([8]; neomycin 4 weeks from week 12, control 69.8): 44.3 mm^3
xenograft growth of PC-3 cells [9]: inhibit
effect on nuclear translocation of ANG [4]: blocks

NC[C@H]1O[C@H](O[C@H]2[C@H](O)[C@@H](O)[C@H](N)C[C@@H]2N)[C@H](N)[C@@H](O)[C@@H]1O [neamine]
acute or chronic adverse side effects [10]: No acute or chronic adverse side effects; also recorded: not observed
nephrotoxicity relative to that of neomycin ([11]; cell and organ culture): ~5%
ototoxicity relative to that of neomycin ([11]; cell and organ culture): ~6%
toxicity relative to neomycin (fold less toxic) ([11]; toxicity profile): close to that of streptomycin and kanamycin
anti-angiogenic activity [3]: equally effective
47S rRNA level / transcription (ISH) [7]: decreased dramatically
AKT phosphorylation (IHC) [7]: did not differ from those of controls
localization of ANG in prostate epithelial cells (IHC) [7]: predominantly cytoplasmic and extracellular
PIN formation (H&E) [7]: inhibited PIN formation
vessel density (CD31) in ventral prostate ([7]; neamine 10 mg/kg daily 4 weeks, control 11.5±4.5): 4±0.5 per mm^2
Ki-67 positive cells ([7]; neamine 10 mg/kg daily 4 weeks, untreated PIN 61.1±9.3): 24.9±8.4%
percentage of PIN in the ventral prostate ([7]; neamine 10 mg/kg daily i.p. 4 weeks from week 4, control 95.1±4.3): 39.6±1.4%
AKT expression and phosphorylation (IHC) [8]: not affected
established PIN phenotype (H&E) [8]: shrank established PIN
rRNA transcription / 47S rRNA level (ISH) [8]: inhibited
apoptotic index (TUNEL) ([8]; neamine 10 mg/kg daily i.p. 4 weeks from week 12, untreated 0.89±0.12): 2.15±0.17 per duct
mice with PIN regression ([8]; neamine 10 mg/kg daily i.p. 4 weeks, 12 mice): all 12
percentage of glands having PIN ([8]; neamine 10 mg/kg daily i.p. 4 weeks, before/control 95.2±3.2): 33% and 33.4±5.2%
decrease in cell proliferation ([12]; from PCNA positive cells vs control): 66%
decrease in tumor angiogenesis ([12]; from vessel density vs control): 72.8%
PCNA positive cells ([12]; neamine-treated PC-3 tumors, control 75.4±6): 25.6±6.4%
vessel density (vWF) ([12]; neamine-treated PC-3 tumors, control 82±3.2): 22.3±9.6 vessels per mm^2
localization of ANG in tumor cells (IHC, 26-2F) ([12]; neamine-treated PC-3 tumors, nuclear in untreated): most of the ANG is extracellular
47S rRNA level (ISH) ([12]; neamine-treated vs control tumor tissues): decreased significantly
fold by which the 30 mg/kg dose is lower than the reported LD50 ([13]; 30 mg/kg s.c. vs LD50 1250 mg/kg): 42 fold
fold by which LD50 is higher than the highest scheduled dose ([13]; LD50 1,250 mg/kg vs 160 mg/kg): 7.8 fold
effect on nuclear translocation of ANG [4]: comparable activity
xenograft growth [14]: inhibits
xenograft growth [15]: inhibits
inhibition of tumor growth ([16]; day 56, from tumor weight vs control): 72.5%
average tumor weight ([16]; day 56, neamine 30 mg/kg s.c. twice weekly, control 620±310): 170 ± 50 mg
tumor growth rate in animals that did develop tumors ([16]; neamine 30 mg/kg s.c. twice weekly): decreased significantly
animals in which tumor establishment was prevented ([16]; neamine 30 mg/kg s.c. twice weekly for 8 weeks, n=12): 50%
animals with palpable tumors at day 20 ([16]; neamine 30 mg/kg s.c. twice weekly, day 20): 5 of the 12

COc1ccc2c(c1)CC[C@@H]1[C@@H]2CC[C@]2(C)[C@@H](NCCCCCCN3C(=O)C=CC3=O)CC[C@@H]12 [U-73122]
effect on nuclear translocation of ANG [2]: only marginally block

gentamicin
anti-angiogenic activity [3]: not anti-angiogenic
effect on nuclear translocation of ANG [4]: do not block

Nc1ccc(N=Nc2ccc(-c3ccc(O)cc3)cc2)c2ccc(S(=O)(=O)O)cc12 [N65828, 8-amino-5-(4′-hydroxybiphenyl-4-ylazo)naphthalene-2-sulfonate]
selectivity of enzymatic inhibition, ANG vs RNase A [17]: preferentially inhibited
47S rRNA level / transcription (ISH) [7]: inhibited
AKT phosphorylation (IHC) [7]: not altered
localization of ANG in prostate epithelial cells (IHC) [7]: remained strongly in the nucleus
PIN formation (H&E) [7]: prevented PIN formation
AKT expression and phosphorylation (IHC) [8]: not different from that of the control group
established PIN phenotype (H&E) [8]: reversed
rRNA transcription / 47S rRNA level (ISH) [8]: dramatically decreased
apoptotic index [8]: 2.02±0.21 caspase 3 positive cells per duct
xenograft growth of PC-3 cells [9]: inhibit
